Assay results as given in the supplement of paper PMC10307832.

What was measured:
Assay in all cases: relative viability (nuclei count vs DMSO), 5 days (fraction); higher = more cells survive
Carboplatin + Trametinib = compound: C1CC(C1)(C(=O)O)C(=O)O.[NH2-].[NH2-].[Pt+2] [Carboplatin] + CC(=O)Nc1cccc(-n2c(=O)n(C3CC3)c(=O)c3c(Nc4ccc(I)cc4F)n(C)c(=O)c(C)c32)c1 [Trametinib] (partner 0.02 µM)
In short: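 Nuclei were stained with Hoechst during a one-step fixation (final 0.05% Triton X-100, 1% formaldehyde, 1 ug/ml Hoechst) carried out 5 days after dosing, then counted on 4× images. The cells, lung cancer lines in 1536-well plates, had been dosed by pin tool the day after seeding with one drug alone or a fixed anchor-drug dose plus five library-drug doses (not always all listed) in √10 steps. Relative viability is the nuclei count in treated wells divided by that in vehicle wells, and each value is the median of duplicate plates.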

Carboplatin = compound: C1CC(C1)(C(=O)O)C(=O)O.[NH2-].[NH2-].[Pt+2] [Carboplatin]
In short: (§1)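 For viability, nuclei in each treated well were divided by nuclei in vehicle wells and the median across plates was taken. Lung cancer cell lines in 1536-well plates were pinned with five library-drug doses (not always all listed) spaced by √10, cultured 5 days without medium change, and imaged at 4× after Hoechst staining, with plates passing only at control CV below 25% and at least one doubling.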

MLN4924 = compound: NS(=O)(=O)OC[C@@H]1C[C@@H](n2ccc3c(N[C@H]4CCc5ccccc54)ncnc32)C[C@@H]1O [MLN4924]
In short: as §1

GSK126 = compound: CC[C@H](C)N1C=C(C2=C(C=C(C=C21)C3=CN=C(C=C3)N4CCNCC4)C(=O)NCC5=C(C=C(NC5=O)C)C)C [GSK126]
In short: as §1

Cell Line	relative viability (Carboplatin + Trametinib; first compound 0.08 µM)	relative viability (Carboplatin + Trametinib; first compound 0.253 µM)	relative viability (Carboplatin + Trametinib; first compound 0.8 µM)	relative viability (Carboplatin + Trametinib; first compound 2.53 µM)	relative viability (Carboplatin + Trametinib; first compound 8 µM)	relative viability (Carboplatin; 0.08 µM)	relative viability (Carboplatin; 0.253 µM)	relative viability (Carboplatin; 0.8 µM)	relative viability (Carboplatin; 2.53 µM)	relative viability (Carboplatin; 8 µM)	relative viability (MLN4924; 0.04 µM)	relative viability (MLN4924; 0.1265 µM)	relative viability (MLN4924; 0.4 µM)	relative viability (MLN4924; 1.265 µM)	relative viability (MLN4924; 4 µM)	relative viability (GSK126; 0.08 µM)	relative viability (GSK126; 0.253 µM)	relative viability (GSK126; 0.8 µM)	relative viability (GSK126; 2.53 µM)	relative viability (GSK126; 8 µM)
PC-3 [JPC-3]	0.781	0.67	0.628	0.616	0.65	1.14	1.08	1.05	0.992	0.96	0.994	1.1	0.397	0.432	0.396	1.03	0.999	1.06	1.03	1.12
NCI-H1648	0.527	0.567	0.45	0.382	0.473	1.13	0.878	0.871	0.6	0.813	0.635	0.448	0.329	0.246	0.32	0.932	0.783	1.07	1.2	0.725
NCI-H2085	0.498	0.558	0.512	0.518	0.527	1.08	1	0.981	1.01	0.905	0.978	1.01	1.12	0.772	0.541	1.06	1.05	0.958	0.943	1.02
EKVX	0.324	0.342	0.332	0.359	0.327	1.01	0.984	0.99	1.05	0.855	0.933	0.914	0.685	0.238	0.209	1.02	1.08	1.02	1.03	0.982
NCI-H1792	0.514	0.395	0.354	0.361	0.231	1.07	0.918	0.83	0.773	0.723	0.929	0.954	1.1	0.412	0.4	0.998	0.837	1.04	0.934	0.879
NCI-H2405	0.752	0.661	0.635	0.633	0.606	1.1	1	1.05	1.03	0.885	1.06	0.979	0.586	0.29	0.27	1.03	0.946	0.98	0.984	1.03
201T	0.833	0.693	0.699	0.714	0.694	1.01	0.994	1.03	0.971	0.9	1.09	0.989	0.73	0.375	0.307	1.03	1.01	1.02	1.06	1.07
NCI-H1755	0.823	0.78	0.752	0.82	0.7	1.05	1.03	1.04	1	0.966	0.954	0.905	0.547	0.255	0.198	1.04	1.06	0.978	1	1.06
NCI-H647	0.533	0.483	0.413	0.469	0.457	1.13	1.02	0.986	0.944	0.767	0.881	0.619	0.221	0.0551	0.0691	0.879	0.964	0.896	1.05	1
NCI-H1651	0.851	0.77	0.826	0.771	0.711	0.996	1.01	0.948	0.861	0.679	1.02	1.04	0.967	0.503	0.202	1.09	0.957	0.956	1.05	1.09
NCI-H1437	0.487	0.518	0.452	0.463	0.5	1.03	0.965	0.966	0.905	0.868	0.941	0.988	0.841	0.423	0.281	1.05	1	0.945	0.92	0.919
NCI-H1975	0.329	0.391	0.33	0.371	0.388	1	0.944	0.968	0.931	0.9	0.96	1.14	1.38	0.843	0.447	0.961	0.888	0.93	0.923	0.934
BEN	1.2	0.928	0.97	0.893	0.865	1.11	0.969	0.987	0.904	0.893	0.729	0.627	0.408	0.197	0.219	1.1	0.997	0.914	1.04	0.924
NCI-H441	0.556	0.448	0.479	0.467	0.371	0.957	1.08	0.925	1	0.801	0.943	0.822	0.512	0.148	0.185	1.23	0.954	0.986	1.05	0.995
NCI-H2170	0.911	1.02	0.966	0.814	0.717	0.957	0.944	0.972	0.964	0.864	1	0.92	0.406	0.164	0.197	1.03	1.05	0.881	1.03	0.932
HCC-44	1.14	1.08	1.02	1.1	0.903	1.04	0.92	0.949	0.915	0.723	0.635	0.683	0.219	0.217	0.225	1.03	1	1.01	0.869	1.05
